In patent US20230111310A1, “CARBOXYLIC ACID DERIVATIVE-SUBSTITUTED IMINO ARYL COMPOUND, PREPARATION METHOD THEREFOR, HERBICIDAL COMPOSITION AND USE THEREOF” (Qingdao Kingagroot Chemical Compound Co., Ltd., priority 2020, published 2023):

Columns and labels:
Type in all cases: in vivo
cotton = assay: Pre-emergence stage, crop selectivity; conditions: 4 weeks
Outline: (§1)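 Test compounds were dissolved in acetone with tween 80, diluted with water and sprayed right after sowing, with seeds covered by 0.5-2 cm of soil. Rates were 500 to 7.5 g/ha. Growth control was scored against activity-level criteria after 4 weeks in the greenhouse.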

Peanut = assay: Pre-emergence stage, crop selectivity; conditions: 4 weeks
Outline: as §1

corn = assay: Pre-emergence stage, crop selectivity; conditions: 4 weeks
Outline: as §1

Soybeans = assay: Pre-emergence stage, crop selectivity; conditions: 4 weeks
Outline: as §1

Eleusine indica = assay: Weeding effect in post-emergence stage; conditions: for Weeding effect in post-emergence stage, Eleusine indica: level of fresh weight growth control rate
Outline: (§2)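 Pot-grown greenhouse plants sprayed at 2–3 leaf stage, 2 weeks after sowing, with compound in acetone/Tween 80 plus methyl oleate emulsifiable concentrate (1.5 liter/ha) at 500–7.5 g/ha. Growth control rated 3 weeks after treatment; mean of three replicates.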

Digitaria sanguinalis = assay: Weeding effect in post-emergence stage; conditions: level of fresh weight growth control rate
Outline: as §2

Setaria viridis [1] = assay: Weeding effect in post-emergence stage; conditions: level of fresh weight growth control rate
Outline: as §2

Alopecurus japonicus = assay: Weeding effect in post-emergence stage; conditions: level of fresh weight growth control rate
Outline: as §2

Abutilon theophrasti [2] = assay: Weeding effect in post-emergence stage; conditions: level of fresh weight growth control rate
Outline: as §2

Veronica didyma Tenore = assay: Weeding effect in pre-emergence stage; conditions: 4 weeks
Outline: as §1

Descurainia sophia = assay: Weeding effect in pre-emergence stage; conditions: 4 weeks
Outline: as §1

Setaria viridis [3] = assay: Weeding effect in pre-emergence stage; conditions: 4 weeks
Outline: as §1

Amaranthus retroflexus [4] = assay: Weeding effect in pre-emergence stage; conditions: 4 weeks
Outline: as §1

Abutilon theophrasti [5] = assay: Weeding effect in pre-emergence stage; conditions: 4 weeks
Outline: as §1

Capsella bursa-pastoris = assay: Weeding effect in pre-emergence stage; conditions: 4 weeks
Outline: as §1

Amaranthus retroflexus [6] = assay: Weeding effect in post-emergence stage; conditions: 7.5 g/ha, 3 weeks
Outline: as §2

Echinochloa crusgalli = assay: Weeding effect in post-emergence stage; conditions: for Weeding effect in post-emergence stage, Echinochloa crusgalli: level of fresh weight growth control rate
Outline: as §2

Leptochloa chinensis = assay: Weed control effect evaluation in rice field; conditions: rice field pot, 30 g/ha, 14 days after treatment
Excerpt: (§3) The activity level criteria for plant damage (i.e., growth control rate) are as follows:
(§4) Rice field soil was loaded into a 1/1,000,000 ha pot. The seeds of Echinochloa crusgalli. Scirpus juncoides. Bidens tripartita L., Monochoria vaginalis, and Leptochloa chinensis were sowed and gently covered with soil, then left to stand still in greenhouse in the state of 0.5-1 cm of water storage. The tuber of Sagittaria trifolia was planted in the next day or 2 days later. It was kept at 3-4 cm of water storage thereafter. The weeds were treated by dripping the WP or SC water diluents prepared according to the common preparation method of the compounds of the present invention with pipette homogeneously to achieve specified effective amount when Echinochloa crusgalli. Scirpus juncoides, Bidens tripartita L., Monochoria vaginalis, and Leptochloa chinensis reached 0.5 leaf stage and Sagittaria trifolia reached the time point of primary leaf stage.
(§5) The fertility condition of Echinochloa crusgalli. Scirpus juncoides. Bidens tripartita L., Monochoria vaginalis, Leptochloa chinensis and Sagittaria trifolia 14 days after the treatment of the compound of the invention and the fertility condition of rice 21 days after the treatment of the compound of the invention respectively with the naked eye. Evaluate the weed control effect with the above activity standard level. Many compounds show excellent activity and selectivity.

Monochoria vaginalis = assay: Weed control effect evaluation in rice field; conditions: rice field pot, 30 g/ha, 14 days after treatment
Excerpt: as §3, §4, §5

Scirpus juncoides = assay: Weed control effect evaluation in rice field; conditions: rice field pot, 30 g/ha, 14 days after treatment
Excerpt: as §3, §4, §5

Rice = assay: Transplanted rice safety evaluation; conditions: transplanted japonica rice, 30 g/ha, 21 days after treatment
Description: as §3
In addition, the rice field soil that loaded into the 1/1,000,000 ha pot was leveled to keep water storage at 3-4 cm depth. The 5 leaf stage rice (japonica rice) was transplanted at 3 cm of transplanting depth the next day. The compound of the present invention was treated by the same way after 5 days of transplantation.
as §5

[7] = system: Echinochloa caudata Roshev.; assay: Composition activity test, post-emergence foliage spray
Description: are as follows, and the others were purchased from reagent companies. The technical materials were all dissolved in acetone and diluted with an aqueous solution containing 0.1% emulsifier Tween-80. The dilution is performed as required.
Weeds were cultivated by a pot culture method. […] Full and uniform weed seeds were selected, soaked in warm water at 25° C. for 6 hours, and germinated in a 28° C. biochemical incubator (darkness). The weed seeds that had just germinated were evenly placed on the surface of the soil and then covered with 0.5-1 cm soil according to the sizes of seeds.
The culture was carried out in a controllable sunlight greenhouse at 20 to 30° C., in natural light, and relative humidity of 57% to 72%.
3 pots with 20 weed seeds per pot were treated in one treatment with 4 replications per treatment.
The agents were used for only once in the experiment. In the stage of weeds with 1.5-2 leaves, the weeds were thinned out to maintain 10 weeds per pot and 30 weeds for each treatment, then continued to be cultured to Conyza Canadensis 10 cm in height, other weeds 3-4 leaves stage and treated.
The well-cultured weeds were evenly placed on a platform with an area of 0.5 m^2, and a solution of agents was sprayed on the stems and leaves thereof by the 3WP-2000-type walking spray tower at a dosage of 450 kg/ha and at a spray pressure of 0.3 MPa. After all the solution was sprayed, the valve was closed. After 30 seconds, the door of the spray tower was opened, and the nutritional bowl was taken out. Then the valve was opened, and the spray tube was cleaned by spraying 50 ml of water. After the treatment, the weeds were routinely cultured in a greenhouse.
A method for investigating absolute number was employed, wherein whole seedlings of survival weeds were cut off with a blade along the soil surface, and the fresh weight of the weeds was weighed with an analytical balance. For dead weeds, the fresh weight thereof was zero.
The investigation was performed after 21 days of the treatment for only once.
An optimum ratio of the two active ingredients was determined by the actual control effect, characteristics of herbicides, and balance of a corresponding formula. Wherein, in the formula, X represented the fresh weight inhibition rate of the active ingredient A in a dosage of P, and Y represented the fresh weight inhibition rate of the active ingredient B in a dosage of Q. The statistical results were shown in the table 6.

[8] = post-emergence, 7.5 g/ha, 3 weeks

## COC(=O)[C@@H](C)O/N=C/c1cc(-n2c(=O)cc(C(F)(F)F)n(C)c2=O)c(F)cc1Cl [194(R)]
cotton; 15 g/ha
  plant damage level Cotton: 0 (Level 0: growth control rate is less than 5%)
cotton; 30 g/ha
  plant damage level Cotton: 0 (Level 0: growth control rate is less than 5%)
cotton; 60 g/ha
  plant damage level Cotton: 0 (Level 0: growth control rate is less than 5%)
Peanut; 15 g/ha
  plant damage level Peanut: 0 (Level 0: growth control rate is less than 5%)
Peanut; 30 g/ha
  plant damage level Peanut: 0 (Level 0: growth control rate is less than 5%)
Peanut; 60 g/ha
  plant damage level Peanut: 0 (Level 0: growth control rate is less than 5%)
corn; 15 g/ha
  plant damage level Corn: 0 (Level 0: growth control rate is less than 5%)
corn; 30 g/ha
  plant damage level Corn: 0 (Level 0: growth control rate is less than 5%)
corn; 60 g/ha
  plant damage level Corn: 0 (Level 0: growth control rate is less than 5%)
Soybeans; 15 g/ha
  plant damage level Soybeans: 0 (Level 0: growth control rate is less than 5%)
Soybeans; 30 g/ha
  plant damage level Soybeans: 0 (Level 0: growth control rate is less than 5%)
Soybeans; 60 g/ha
  plant damage level Soybeans: 0 (Level 0: growth control rate is less than 5%)
Eleusine indica; Dose 7.5 g/ha
  Weeding effect in post-emergence stage, Eleusine indica: 5 (Level 5: growth control rate is above 85%)
Eleusine indica; Dose 15 g/ha
  Weeding effect in post-emergence stage, Eleusine indica: 5 (Level 5: growth control rate is above 85%)
Eleusine indica; [8]
  activity level (growth control rate) Eleusine indica: 5 (Level 5: growth control rate is above 85%)
Digitaria sanguinalis; Dose 7.5 g/ha
  Weeding effect in post-emergence stage, Digitaria sanguinalis: 5 (Level 5: growth control rate is above 85%)
Digitaria sanguinalis; Dose 15 g/ha
  Weeding effect in post-emergence stage, Digitaria sanguinalis: 5 (Level 5: growth control rate is above 85%)
Setaria viridis [1]; Dose 7.5 g/ha
  Weeding effect in post-emergence stage, Setaria viridis: 5 (Level 5: growth control rate is above 85%)
Setaria viridis [1]; Dose 15 g/ha
  Weeding effect in post-emergence stage, Setaria viridis: 5 (Level 5: growth control rate is above 85%)
Alopecurus japonicus; Dose 7.5 g/ha
  Weeding effect in post-emergence stage, Alopecurus japonicus: 5 (Level 5: growth control rate is above 85%)
Alopecurus japonicus; Dose 15 g/ha
  Weeding effect in post-emergence stage, Alopecurus japonicus: 5 (Level 5: growth control rate is above 85%)
Abutilon theophrasti [2]; Dose 7.5 g/ha
  Weeding effect in post-emergence stage, Abutilon theophrasti: 5 (Level 5: growth control rate is above 85%)
Abutilon theophrasti [2]; Dose 15 g/ha
  Weeding effect in post-emergence stage, Abutilon theophrasti: 5 (Level 5: growth control rate is above 85%)
Veronica didyma Tenore; 15 g/ha
  activity level (growth control rate) Veronica didyma Tenore: 5 (Level 5: growth control rate is above 85%)
Veronica didyma Tenore; 30 g/ha
  activity level (growth control rate) Veronica didyma Tenore: 5 (Level 5: growth control rate is above 85%)
Veronica didyma Tenore; 60 g/ha
  activity level (growth control rate) Veronica didyma Tenore: 5 (Level 5: growth control rate is above 85%)
Descurainia sophia; 15 g/ha
  activity level (growth control rate) Descurainia sophia: 5 (Level 5: growth control rate is above 85%)
Descurainia sophia; 30 g/ha
  activity level (growth control rate) Descurainia sophia: 5 (Level 5: growth control rate is above 85%)
Descurainia sophia; 60 g/ha
  activity level (growth control rate) Descurainia sophia: 5 (Level 5: growth control rate is above 85%)
Setaria viridis [3]; 15 g/ha
  activity level (growth control rate) Setaria viridis: 5 (Level 5: growth control rate is above 85%)
Setaria viridis [3]; 30 g/ha
  activity level (growth control rate) Setaria viridis: 5 (Level 5: growth control rate is above 85%)
Setaria viridis [3]; 60 g/ha
  activity level (growth control rate) Setaria viridis: 5 (Level 5: growth control rate is above 85%)
Amaranthus retroflexus [4]; 15 g/ha
  activity level (growth control rate) Amaranthus retroflexus: 5 (Level 5: growth control rate is above 85%)
Amaranthus retroflexus [4]; 30 g/ha
  activity level (growth control rate) Amaranthus retroflexus: 5 (Level 5: growth control rate is above 85%)
Amaranthus retroflexus [4]; 60 g/ha
  activity level (growth control rate) Amaranthus retroflexus: 5 (Level 5: growth control rate is above 85%)
Abutilon theophrasti [5]; 15 g/ha
  activity level (growth control rate) Abutilon theophrasti: 5 (Level 5: growth control rate is above 85%)
Abutilon theophrasti [5]; 30 g/ha
  activity level (growth control rate) Abutilon theophrasti: 5 (Level 5: growth control rate is above 85%)
Abutilon theophrasti [5]; 60 g/ha
  activity level (growth control rate) Abutilon theophrasti: 5 (Level 5: growth control rate is above 85%)
Capsella bursa-pastoris; 15 g/ha
  activity level (growth control rate) Capsella bursa-pastoris: 5 (Level 5: growth control rate is above 85%)
Capsella bursa-pastoris; 30 g/ha
  activity level (growth control rate) Capsella bursa-pastoris: 5 (Level 5: growth control rate is above 85%)
Capsella bursa-pastoris; 60 g/ha
  activity level (growth control rate) Capsella bursa-pastoris: 5 (Level 5: growth control rate is above 85%)
Amaranthus retroflexus [6]
  activity level (growth control rate) Amaranthus retroflexus: 5 (Level 5: growth control rate is above 85%)
Echinochloa crusgalli; Dose 7.5 g/ha
  Weeding effect in post-emergence stage, Echinochloa crusgalli: 5 (Level 5: growth control rate is above 85%)
Echinochloa crusgalli; Dose 15 g/ha
  Weeding effect in post-emergence stage, Echinochloa crusgalli: 5 (Level 5: growth control rate is above 85%)
Echinochloa crusgalli; [8]
  activity level (growth control rate) Echinochloa crusgalli: 5 (Level 5: growth control rate is above 85%)
Leptochloa chinensis
  activity level (weed control effect) Leptochloa chinensis: 5 (Level 5: growth control rate is above 85%)
Monochoria vaginalis
  activity level (weed control effect) Monochoria vaginalis: 5 (Level 5: growth control rate is above 85%)
Scirpus juncoides
  activity level (weed control effect) Scirpus juncoides: 5 (Level 5: growth control rate is above 85%)
Rice
  plant damage level Rice: 0 (Level 0: growth control rate is less than 5%)

## CCC[S@@+]([O-])c1c(C(F)(F)F)ccc(C(=O)Nc2nnc(C)o2)c1F [Cpd B1]
[7]; B 7.5 g a.i./ha
  Control effect (%) of B applied alone (B): 47.8%

## Cn1[nH]c(C2CC2)c(C(=O)c2ccc(C(F)(F)F)c(N3CCCCC3=O)c2Cl)c1=O [huanbifucaotong]
[7]; B 60 g a.i./ha
  Control effect (%) of B applied alone (B): 27.4%

## CS(=O)(=O)c1cc(C(F)(F)F)ccc1C(=O)c1cnoc1C1CC1 [isoxaflutole]
[7]; B 15 g a.i./ha
  Control effect (%) of B applied alone (B): 41.3%
